One series has as its target T1, human GIP receptor (Homo sapiens, UniProt P48546).
T1 construct: expressed in transfected cells; host or cells: HEK-293
T1 sequence (P48546 22-466): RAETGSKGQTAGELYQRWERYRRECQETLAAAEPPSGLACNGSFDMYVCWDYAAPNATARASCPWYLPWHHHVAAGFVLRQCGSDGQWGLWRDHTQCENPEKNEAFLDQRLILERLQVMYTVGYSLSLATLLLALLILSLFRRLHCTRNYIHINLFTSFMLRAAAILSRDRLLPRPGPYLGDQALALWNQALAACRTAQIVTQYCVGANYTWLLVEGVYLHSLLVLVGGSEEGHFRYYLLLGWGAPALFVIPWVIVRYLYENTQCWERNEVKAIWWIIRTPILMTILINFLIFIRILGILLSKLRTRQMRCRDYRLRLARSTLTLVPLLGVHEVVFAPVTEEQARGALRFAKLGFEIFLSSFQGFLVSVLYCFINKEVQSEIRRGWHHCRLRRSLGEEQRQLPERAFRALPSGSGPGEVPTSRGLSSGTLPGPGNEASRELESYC
In words: cAMP response (HTRF) of HEK-293 cells stably expressing human GIP receptor. Format: cell-based. The conditions noted are these: Table 8; read-out: EC50 hGIP R. On the procedure:
Agonism of compounds for the receptors was determined by functional assays measuring cAMP response of HEK-293 cell lines stably expressing human GLP-1, GIP or glucagon receptor.
cAMP content of cells was determined using a kit from Cisbio Corp. (cat. no. 62AM4PEJ) based on HTRF (Homogenous Time Resolved Fluorescence). For preparation, cells were split into T175 culture flasks and grown overnight to near confluency in medium (DMEM/10% FBS). Medium was then removed and cells washed with PBS lacking calcium and magnesium, followed by proteinase treatment with accutase (Sigma-Aldrich cat. no. A6964). Detached cells were washed and resuspended in assay buffer (1×HBSS; 20 mM HEPES, 0.1% BSA, 2 mM IBMX) and cellular density determined. They were then diluted to 400000 cells/ml and 25 μl-aliquots dispensed into the wells of 96-well plates. For measurement, 25 μl of test compound in assay buffer was added to the wells, followed by incubation for 30 minutes at room temperature. After addition of HTRF reagents diluted in lysis buffer (kit components), the plates were incubated for 1 hr, followed by measurement of the fluorescence ratio at 665/616 nm. In vitro potency of agonists was quantified by determining the concentrations that caused 50% activation of maximal response (EC50).
Potencies of peptidic compounds at the GLP-1, glucagon and GIP receptors were determined by exposing cells expressing human glucagon receptor (hGlucagon R), human GIP receptor (hGIP-R) or human GLP-1 receptor (hGLP-1 R) to the listed compounds at increasing concentrations and measuring the formed cAMP as described in Methods.

Series [1] can be described thus: Chemical stability assessment, UPLC-UV purity loss in buffer system A. The class given is physicochemical. The note with it: 1 mg/ml, 25 mM acetate buffer pH 4.5 with m-cresol. On the procedure:
Prior to the chemical stability measurement of a peptide batch, its purity was determined through UPLC/MS. For stability testing the target concentration was 1 mg pure compound/ml. Therefore solutions from solid samples were prepared in a buffer system with a concentration of 1 mg/mL compound based on the previously determined % purity:
Chemical stability buffer system A) 25 mM acetate buffer pH 4.5, 3 mg/mL L-Methionine, 2.7 mg/mL m-cresol, 18 mg/mL Glycerol 85% Chemical stability buffer system B) 25 mM phosphate buffer pH 6.0, 3 mg/mL L-Methionine, 2.7 mg/mL m-cresol, 18 mg/mL Glycerol 85%
Peptide solutions were filtered through […] pore size and filled into aliquots under aseptic conditions. At starting point, UPLC-UV was performed by injection of 2 μl of the undiluted sample.
For chemical stability testing, aliquots were stored for 28 days at 5 and 40° C. After this time course the samples were centrifuged for 15 min at 2500 RCF. Then 2 μl of the undiluted supernatant were analysed with UPLC-UV.
The chemical stability was rated through the relative loss of purity calculated by the equation: [(purity at starting point)−(purity after 28 days at X° C.)]/(purity at starting point)]*100%
The purity is calculated as
[(peak area peptide)/(total peak area)]*100%
Peptide samples were prepared in Chemical stability buffer system A and the stability was assessed as described in Methods.

Series [2] in a line: Thioflavin T (ThT) assay for physical stability (fibrillation). Format: physicochemical. The note with it: 3 mg/ml, 100 mM acetate pH 4.5 with m-cresol, 37° C. shaking. In outline: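 Peptides at 3 mg/ml final with 100 μM ThT final in 100 mM acetate pH 4.5 containing 2.7 mg/mL m-cresol, eight replicates. Stressed at 37° C by repeated cycles of 10 s shaking at 960 rpm and 50 s rest. Fluorescence read every 20 minutes; lag time in hours taken from the sigmoidal kinetic curve.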

Usually EC50 stands for the concentration needed to bring the measured effect to its halfway point.

Numbered stars: 1 amine (or outer) side, 2 acyl side, 3 side chain; on linkers, the order of the positions; unused ones are H or OH. Square brackets hold non-standard residues; d marks the D form. Side chains are listed from the residue outwards. Peptide text beside a SMILES is read from it. * marks the point of attachment. Adipoyl(4R-palmitoylamino) = CCCCCCCCCCCCCCCC(=O)N[C@H](CCC(=O)*)CC(=O)O; γGlu = O=C(O)[C@H](CCC(=O)[*:2])N[*:1]; AEEA = NCCOCCOCC(=O)O; Aib = CC(C)(N)C(=O)O

For the compound `CCCCCCCCCCCCCCCC(=O)N[C@H](CCC(=O)NCCOCCOCC(=O)N[C@@H](CCC(=O)NCCCC[C@H](NC(=O)[C@H](CC(C)C)NC(=O)[C@H](CCCCN)NC(=O)[C@H](CO)NC(=O)[C@H](CC(C)C)NC(=O)[C@H](CC(=O)O)NC(=O)[C@H](CO)NC(=O)[C@@H](NC(=O)[C@H](Cc1ccccc1)NC(=O)[C@@H](NC(=O)CNC(=O)[C@H](Cc1c[nH]cn1)NC(=O)C(C)(C)NC(=O)[C@@H](N)Cc1c[nH]cn1)[C@@H](C)O)[C@@H](C)O)C(=O)N[C@@H](CCC(=O)O)C(=O)N[C@@H](CCC(=O)O)C(=O)N[C@@H](CCC(N)=O)C(=O)N[C@@H](CCCNC(=N)N)C(=O)N[C@@H](CCC(N)=O)C(=O)N[C@@H](CCCCN)C(=O)N[C@@H](CCC(=O)O)C(=O)N[C@@H](Cc1ccccc1)C(=O)N[C@H](C(=O)N[C@@H](CCC(=O)O)C(=O)N[C@@H](Cc1c[nH]c2ccccc12)C(=O)N[C@@H](CC(C)C)C(=O)N[C@@H](CCCCN)C(=O)N[C@@H](C)C(=O)NCC(=O)NCC(=O)N[C@@H](Cc1c[nH]cn1)C(=O)N1CCC[C@H]1C(=O)N[C@@H](CO)C(=O)NC(C)(C)C(=O)N[C@@H](CCCCN)C(=O)N1CCC[C@H]1C(=O)N1CCC[C@H]1C(=O)N1CCC[C@H]1C(=O)N[C@@H](CCCCN)C(N)=O)[C@@H](C)CC)C(=O)O)CC(=O)O` [SEQ ID NO: 22, H-Aib-H-G-T-F-T-S-D-L-S-K-L-K[gGlu-AEEA-gAAA-Palm]-E-E-Q-R-Q-K-E-F-I-E-W-L-K-A-G-G-H-P-S-Aib-K-P-P-P-K-NH2] (H-H[Aib]HGTFTSDLSKLK([γGlu-AEEA-Adipoyl(4R-palmitoylamino)])EEQRQKEFIEWLKAGGHPS[Aib]KPPPK-NH2), on human GIP receptor, the concentration giving a half-maximal response (EC50) is 1.1 pM. The “Chemical stability [relative purity loss 28 days 40° C.] (%) at pH 4.5” value in series [1] was 9.5%. In addition, the “Lag time before increase” value in series [2] was over 45 h.

These data come from US10538567B2, “Compounds as peptidic trigonal GLP1/glucagon/GIP receptor agonists” (priority 2016, dated 2020).
